Laboratory results: patent publication US20120088694A1, “CELL ASSAY METHODS AND ARTICLES” (NanoInk, Inc., priority 2010, published 2012)

System: NIH 3T3 fibroblasts
Experiment: Fibroblast spreading and migration on fibronectin patterns with PEG hydrogel delivering compound
Type: cell-based
Experimental: An exemplary method is described here for patterning cells onto surfaces using direct deposition of extracellular matrix (ECM) proteins and for delivering multiple compounds to individual cells. First, actin polymerization and stress fiber formation was followed over a 2 hour time period. Second, multiple ECM proteins were patterned on the same substrate and side-by-side analysis of single cells was done to characterize differential responses. Finally, polyethylene glycol with or without Cytochalasin-D (250 μM or 500 μM) was delivered to individual cells. A method was established for single cell analysis with multiple compounds on the same substrate. The NLP 2000 (NanoInk, Inc., Skokie, Ill.) fabrication system was used for patterning of ECM proteins and hydrogel composites. After approximately 4 hours, substrates were rinsed and non-specific cell binding is blocked with a solution of bovine serum albumin. NIH 3T3 fibroblasts (ATCC) were added at high density for 30 minutes, at which point non-adherent cells are washed and removed. Complete media was then added for between 0.5 and 3.5 hours before paraformaldehyde fixation, staining and analysis. Cells attach to approximately 75% of the patterns deposited onto glass surfaces. Cell morphology was controlled and actin polymerization was more developed with more elongated stress fibers at 2 hours versus earlier time points. […] Combinatorial experimentation is increasingly important with regard to the cellular microenvironment.
A mixture of PEG-DMA, 4-arm PEG thiol, and Cytochalasin D, a compound of interest, is patterned onto an epoxy-coated glass slide. After curing with UV, fibronectin, an ECM protein, was patterned onto the glass slide around the cured hydrogel. In a control hydrogel pattern, only PEG-DMA and 4-arm PEG thiol, but not any compound of interest, were used for fabricating the hydrogel.
Subsequently, 3T3 fibroblasts were plated onto the glass slide with PEG and fibronectin as described above. […] FIGS. 11 and 12 show the time course following spreading and migration of fibroblasts over a period of 4 hours.

[1] = cells cultured for 2 hours, Cytochalasin D in the PEG hydrogel vs control hydrogel, 15 patterns per group

In the case of `C=C1[C@@H](C)[C@H]2[C@H](Cc3ccccc3)NC(=O)[C@]23[C@H](OC(C)=O)/C=C/[C@@](C)(O)C(=O)[C@@H](C)C/C=C/[C@H]3[C@@H]1O` [Cytochalasin D], the “migration of fibroblasts from the fibronectin patterned area” value (250 and 500 μM in PEG hydrogel, time course over 4 hours, vs PEG without CytoD) is reported as “prevented migration of fibroblasts from the fibronectin patterned area”, the “cell spreading and migration” value (Cytochalasin-D (250 μM or 500 μM) delivered in PEG hydrogel to individual cells) is reported as “decline in cell spreading and migration” and the “number of cells on patterns (images, average fluorescence intensity)” value [1] is reported as “significantly fewer cells”. The “spreading and/or migration away from the patterns” value [1] was “less spreading and/or migration away from the patterns”.
